Measured values: PubChem BioAssay AID2060493 (Molecular Pharmacology Branch, DTP, NCI, 2025)

System: 616215-338-R-J1-PDC tumor spheroids, viability
Experiment: Anticancer human tumor 616215-338-R-J1-PDC patient-derived colon adenocarcinoma cell line growth inhibition [GQUAD]
Conditions: spheroids with HUVEC and MSC; for IC50: curve of first compound; for viability, T/C: stronger effect = lower value
Text: DNA G-quadruplex Stabilizer Agents in Combinations in Complex Spheroids
A high-throughput screen of multi-cell type tumor spheroids was designed to identify active combinations of DNA G-quadruplex stabilizer agents and targeted small molecules. Complex spheroids include a stromal component modeled by human endothelial cells (HUVEC) and fibroblasts modeled by human mesenchymal stem cells (MSCs). The concentration ranges selected for each drug and investigational agent were based upon clinically achievable concentrations if the clinical Cmax of the agent was known.
Compounds. The drugs and investigational agents: pidnarulex (CX-5461; NSC782164), APTO-253 (NSC789042), BRACO-19 (NSC847499), peposertib (NSC802822), ceralasertib (NSC780249), elimusertib (NSC800525), camonsertib (NSC841442), AZD-1390 (NSC803789), olaparib (NSC753686), talazoparib (NSC767125), ART-558 (NSC835418), sotorasib (NSC818433), MRTX-1133 (NSC836407), SN-38 (NSC673596), topotecan (NSC609699), etoposide (NSC141540), doxorubicin (NSC123127), gemcitabine (NSC613327), 5-fluorouracil (NSC19893), paclitaxel (NSC125973), vemurafenib (NSC761431), panobinostat (NSC761190), R-306465 (JNJ-16241199; NSC773264), adavosertib (NSC754352), TP-3654 (NSC805149), carboplatin (NSC241240), KSQ-4279 (NSC840948), and staurosporine (NSC755774) were obtained from the National Cancer Institute (NCI) Developmental Therapeutics Program Chemical Repository (34). The FDA-approved anticancer drug set is available from the NCI Developmental Therapeutics Program. […] The stock solutions were prepared in dimethyl sulfoxide (DMSO, Sigma-Aldrich, St. Louis, MO, cat. D2650) at 800-fold the tested concentration and stored at -70 degrees C prior to their use. All drugs and investigational agents were tested over a range starting from a high concentration at or near the clinical Cmax and decreasing in half-log increments. If the clinical Cmax for an agent had not been determined, the highest concentration tested was 10 microM.
2.3 Cell Culture. All cells were maintained in an incubator at 37 degrees C and 5% CO2 with 95% humidity. The PDC lines were cultured according to standard operating procedures established by the NCI PDMR. All PDCs were thawed and cultured in Matrigel-coated flasks prepared with a working solution of 1X Ham's F-12 nutrient mix, without supplementation (Invitrogen, cat. 11765054), 100 U/mL penicillin-streptomycin (Invitrogen, cat. 15140122), and 2.5% Matrigel (Corning Inc., cat. 354248) for the first three passages. The 857933-349-R-J2-PDC line was cultured in 6C/Colon 1B media, which includes advanced DMEM/F-12 (Thermo Fisher Scientific, cat. 12634028), 10 mM HEPES (Thermo Fisher Scientific, cat. 15630080), 1X GlutaMAX supplement (Thermo Fisher Scientific, cat. 35050061), 0.1 mg/mL primocin (InvivoGen, cat. ant-pm-2), 10% defined fetal bovine serum, heat inactivated (HyClone Laboratories Inc., cat. SH30070.03HI), 50% L-WRN conditioned media (ATCC, cat. CRL-3276), 1.25 mM N-Acetyl-L-cysteine (Sigma-Aldrich, cat. A9165), 10 mM nicotinamide (Sigma-Aldrich, cat. N0636), 1X B-27 supplement (Thermo Fisher Scientific, cat. 17504044), 1X N-2 supplement (Thermo Fisher Scientific, cat. 17502048), 10 microM Y-27632 dihydrochloride (Tocris Bioscience, cat. 1254), and 50 ng/mL human EGF recombinant protein (Thermo Fisher Scientific, cat. PHG0311). The 485176-168-R4-J1-PDC line was cultured in Panc media, which includes all 6C/Colon 1B media components plus 100 ng/mL human FGF-10 (Thermo Fisher Scientific, cat. 100-26), 500 nM SB-431542 (Selleckchem, cat. S1067), and gastrin (Tocris, cat. 3006).
[…]

[1] = second compound 0.0316 µM, first compound 0.0316 µM
[2] = second compound 0.0316 µM, first compound 0.316 µM
[3] = second compound 0.1 µM, first compound 0.0316 µM
[4] = second compound 0.1 µM, first compound 0.316 µM
[5] = second compound 0.316 µM, first compound 0.0316 µM
[6] = second compound 0.316 µM, first compound 0.316 µM
[7] = second compound 1 µM, first compound 0.0316 µM
[8] = second compound 1 µM, first compound 0.316 µM
[9] = second compound 3.16 µM, first compound 0.0316 µM
[10] = second compound 3.16 µM, first compound 0.316 µM
[11] = second compound 10 µM, first compound 0.0316 µM
[12] = second compound 10 µM, first compound 0.316 µM
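Also: spheroids exposed to agents for 7 days before readout.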
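For viability, T/C in this document: percent viability relative to DMSO vehicle control wells taken as 100%.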

Cc1[nH]c2ccccc2c1CCNCc1ccc(/C=C/C(=O)NO)cc1 + Cc1cnc(CNC(=O)c2c(=O)c3ccc(N4CCCN(C)CC4)nc3n3c2sc2ccccc23)cn1 gave an IC50 (second compound 0.0316 µM) of 83.5 nM, an IC50 (second compound 0.1 µM) of 110 nM and an IC50 (second compound 0.316 µM) of under 0.999 nM. It also gave an IC50 (second compound 1 µM) of under 0.999 nM, an IC50 (second compound 3.16 µM) of under 0.999 nM and an IC50 (second compound 10 µM) of under 0.999 nM. For the same compound, the viability, T/C (second compound 0.0316 µM, first compound 0.000999 µM) was 98.6%, the viability, T/C (second compound 0.0316 µM, first compound 0.00316 µM) was 99.3% and the viability, T/C (second compound 0.0316 µM, first compound 0.00999 µM) was 101%. It also gave a viability, T/C [1] of 105%, a viability, T/C (second compound 0.0316 µM, first compound 0.0999 µM) of 40.5% and a viability, T/C [2] of 24.4%. The viability, T/C (second compound 0.1 µM, first compound 0.000999 µM) was 59.6%, the viability, T/C (second compound 0.1 µM, first compound 0.00316 µM) was 90% and the viability, T/C (second compound 0.1 µM, first compound 0.00999 µM) was 60.8%. The viability, T/C [3] was 66.6%, the viability, T/C (second compound 0.1 µM, first compound 0.0999 µM) was 54.4% and the viability, T/C [4] was 6.92%. For the same compound, the viability, T/C (second compound 0.316 µM, first compound 0.000999 µM) was 40.8%, the viability, T/C (second compound 0.316 µM, first compound 0.00316 µM) was 38.2% and the viability, T/C (second compound 0.316 µM, first compound 0.00999 µM) was 38.2%. The viability, T/C [5] was 47.9%, the viability, T/C (second compound 0.316 µM, first compound 0.0999 µM) was 39.1% and the viability, T/C [6] was 0.77%. The viability, T/C (second compound 1 µM, first compound 0.000999 µM) was 36.5%, the viability, T/C (second compound 1 µM, first compound 0.00316 µM) was 23.8% and the viability, T/C (second compound 1 µM, first compound 0.00999 µM) was 28.2%. It also gave a viability, T/C [7] of 23.2%, a viability, T/C (second compound 1 µM, first compound 0.0999 µM) of 13.7% and a viability, T/C [8] of 0.06%. For the same compound, the viability, T/C (second compound 3.16 µM, first compound 0.000999 µM) was 27.9%, the viability, T/C (second compound 3.16 µM, first compound 0.00316 µM) was 21.8% and the viability, T/C (second compound 3.16 µM, first compound 0.00999 µM) was 24.9%. For the same compound, the viability, T/C [9] was 26.6%, the viability, T/C (second compound 3.16 µM, first compound 0.0999 µM) was 0.75% and the viability, T/C [10] was 0.11%. The viability, T/C (second compound 10 µM, first compound 0.000999 µM) was 24.7%, the viability, T/C (second compound 10 µM, first compound 0.00316 µM) was 34.2% and the viability, T/C (second compound 10 µM, first compound 0.00999 µM) was 15.5%. The viability, T/C [11] was 17.7%, the viability, T/C (second compound 10 µM, first compound 0.0999 µM) was 0.25% and the viability, T/C [12] was 0.21%.

In the case of O=C(NO)c1cnc(N2CCN(S(=O)(=O)c3ccc4ccccc4c3)CC2)nc1 + Cc1cnc(CNC(=O)c2c(=O)c3ccc(N4CCCN(C)CC4)nc3n3c2sc2ccccc23)cn1, the IC50 (second compound 0.0316 µM) is reported as 501 nM, the IC50 (second compound 0.1 µM) is reported as 147 nM and the IC50 (second compound 0.316 µM) is reported as under 31.6 nM. It also gave an IC50 (second compound 1 µM) of under 31.6 nM, an IC50 (second compound 3.16 µM) of under 31.6 nM and an IC50 (second compound 10 µM) of under 31.6 nM. The viability, T/C [1] was 101%, the viability, T/C (second compound 0.0316 µM, first compound 0.1 µM) was 96.1% and the viability, T/C [2] was 79.9%. For the same compound, the viability, T/C (second compound 0.0316 µM, first compound 1 µM) was 5.15%, the viability, T/C (second compound 0.0316 µM, first compound 3.16 µM) was 0.03% and the viability, T/C (second compound 0.0316 µM, first compound 10 µM) was 0.07%. It also gave a viability, T/C [3] of 54.1%, a viability, T/C (second compound 0.1 µM, first compound 0.1 µM) of 66.6% and a viability, T/C [4] of 29.4%. For the same compound, the viability, T/C (second compound 0.1 µM, first compound 1 µM) was 0.37%, the viability, T/C (second compound 0.1 µM, first compound 3.16 µM) was 0.03% and the viability, T/C (second compound 0.1 µM, first compound 10 µM) was 0.07%. The viability, T/C [5] was 37.2%, the viability, T/C (second compound 0.316 µM, first compound 0.1 µM) was 41.2% and the viability, T/C [6] was 28.5%. The viability, T/C (second compound 0.316 µM, first compound 1 µM) was 0.06%, the viability, T/C (second compound 0.316 µM, first compound 3.16 µM) was 0.02% and the viability, T/C (second compound 0.316 µM, first compound 10 µM) was 0.06%. For the same compound, the viability, T/C [7] was 24.7%, the viability, T/C (second compound 1 µM, first compound 0.1 µM) was 24.8% and the viability, T/C [8] was 35.1%. The viability, T/C (second compound 1 µM, first compound 1 µM) was 0.04%, the viability, T/C (second compound 1 µM, first compound 3.16 µM) was 0.03% and the viability, T/C (second compound 1 µM, first compound 10 µM) was 0.08%. The viability, T/C [9] was 21.9%, the viability, T/C (second compound 3.16 µM, first compound 0.1 µM) was 34.8% and the viability, T/C [10] was 0.18%. For the same compound, the viability, T/C (second compound 3.16 µM, first compound 1 µM) was 0.07%, the viability, T/C (second compound 3.16 µM, first compound 3.16 µM) was 0.07% and the viability, T/C (second compound 3.16 µM, first compound 10 µM) was 0.09%. The viability, T/C [11] was 12.2%, the viability, T/C (second compound 10 µM, first compound 0.1 µM) was 16% and the viability, T/C [12] was 0.15%. The viability, T/C (second compound 10 µM, first compound 1 µM) was 0.14%, the viability, T/C (second compound 10 µM, first compound 3.16 µM) was 0.16% and the viability, T/C (second compound 10 µM, first compound 10 µM) was 0.17%.
